Assays:
[1] = biological target: Human immunodeficiency virus type 1 protease (Human immunodeficiency virus 1, UniProt Q72874); assay: Binding affinity towards HIV protease was determined
H9 [2] = assay: Compound at 3 uM was tested for antiviral activity against HIV-1-infected H-9 cells; format: functional; settings: Homo sapiens
H9 [3] = assay: Effective dose for antiviral activity against HIV-1-infected H-9 cells; format: functional; settings: Homo sapiens, read-out: ED50 (the source's name)

| Compound | Ki [1] [nM] | inhibition at 3 µM (H9 [2]) [%] | EC50 (H9 [3]) [nM] |
| --- | --- | --- | --- |
| CCC(C1=C(O)OC2CCCCC2C1=O)c1cccc(NS(=O)(=O)c2ccc(C#N)cc2)c1 (stereo unspecified) | 15 | < 10 | – |
| CCC(c1ccccc1)c1c(O)c2c(oc1=O)CCCCCCC2 (stereo unspecified) | > 2000 | – | – |
| CCC(C1=C(O)OC2CCCC2C1=O)c1ccccc1 (stereo unspecified) | > 2000 | – | – |
| CCC(C1=C(O)C2CCCCC2OC1=O)c1cccc(NS(=O)(=O)c2ccc(C#N)cn2)c1 (stereo unspecified) | 0.05 | – | 950 |
| CCC(c1ccccc1)c1c(O)c2c(oc1=O)CCC2 (stereo unspecified) | 700 | – | – |
| CC(C)(C)C(C1=C(O)OC2CCCCCCC2C1=O)c1cccc(NS(=O)(=O)c2ccc(C#N)cc2)c1 (stereo unspecified) | 0.2 | – | 2500 |
| CCC(C1=C(O)OC2CCCCC2C1=O)c1ccccc1 (stereo unspecified) | 670 | – | – |
| CCC(c1cccc(NS(=O)(=O)c2ccc(C#N)cn2)c1)c1c(O)c2c(oc1=O)CCC2 (stereo unspecified) | 0.075 | – | 8600 |
| CCC(C1=C(O)OC2CCCCCC2C1=O)c1ccccc1 (stereo unspecified) | > 1200 | – | – |
| CCC(C1=C(O)OC2CCCCCCC2C1=O)c1ccccc1 (stereo unspecified) | 1200 | – | – |
| CCC(c1ccccc1)c1c(O)c2c(oc1=O)CCCC2 (stereo unspecified) | 1100 | – | – |
| CCC(c1ccccc1)c1c(O)c2ccccc2oc1=O (stereo unspecified) [PHENPROCOUMON] | 800 | – | – |

Reference: ChEMBL document CHEMBL1129800, “Cycloalkylpyranones and cycloalkyldihydropyrones as HIV protease inhibitors: exploring the impact of ring size on structure-activity relationships” (J Med Chem, 1996)
